Several values for one entry are separate records, joined by “and”; a condition that tells them apart may be missing. Equal values may be shown once.
Legend:
[1] = test system: Bacillus subtilis ATCC6633; format: cell-based; conditions: microtiter broth dilution, 10^5 CFU/ml, 16‒18 h at 37 °C; representative of three independent experiments
Description: (§1) The MIC values of LfcinB17-33 derivatives against bacteria were determined by the microtiter broth dilution method. Briefly, 10 μl of serially diluted aliquots of peptides were added to each well of 96-well microtiter plates, followed by the addition of 90 μl exponential phase bacteria (10^5 CFU/ml) and incubated for 16‒18 h at 37 °C.

[2] = test system: Enterococcus faecium CMCC1.2136; format: cell-based; conditions: microtiter broth dilution, 10^5 CFU/ml, 16‒18 h at 37 °C; representative of three independent experiments
Description: as §1

Escherichia coli CVCC195 = format: cell-based; conditions: microtiter broth dilution, 10^5 CFU/ml, 16‒18 h at 37 °C; representative of three independent experiments
Description: as §1

[3] = test system: Pseudomonas aeruginosa CICC10419; format: cell-based; conditions: microtiter broth dilution, 10^5 CFU/ml, 16‒18 h at 37 °C; representative of three independent experiments
Description: as §1

S. choleraesuis CVCC503 = format: cell-based; conditions: microtiter broth dilution, 10^5 CFU/ml, 16‒18 h at 37 °C; representative of three independent experiments
Description: as §1

S. pullorum CVCC1789 = format: cell-based; conditions: microtiter broth dilution, 10^5 CFU/ml, 16‒18 h at 37 °C; representative of three independent experiments
Description: as §1

S. pullorum CVCC1802 = format: cell-based; conditions: microtiter broth dilution, 10^5 CFU/ml, 16‒18 h at 37 °C; representative of three independent experiments
Description: as §1

[4] = test system: Salmonella typhimurium ATCC14028; format: cell-based; conditions: microtiter broth dilution, 10^5 CFU/ml, 16‒18 h at 37 °C; representative of three independent experiments
Description: as §1

[5] = test system: Staphylococcus aureus ATCC43300; format: cell-based; conditions: microtiter broth dilution, 10^5 CFU/ml, 16‒18 h at 37 °C; representative of three independent experiments
Description: as §1

[6] = test system: Streptococcus suis CVCC606; format: cell-based; conditions: microtiter broth dilution, 10^5 CFU/ml, 16‒18 h at 37 °C; representative of three independent experiments
Description: as §1

S. enteritidis CVCC337 = assay: Outer membrane permeabilization, NPN uptake; format: cell-based, Salmonella enteritidis; conditions: 1×, 2× or 4 × MIC; HEPES buffer pH 7.2
Description: The effects of Lfcin4 and Lfcin5 on the outer membrane of S. aureus ATCC25923 and S. enteritidis CVCC3377 were determined by measuring the uptake of NPN[44][45]. Mid-log phase cells were washed with sterile normal saline three times and suspended in 5 mM HEPES buffer (pH 7.2, containing 5 mM glucose) to an OD at 600 nm of 0.5. […] The relative fluorescence intensity was measured using an Infinite M200 PRO plate reader. The excitation and emission wavelengths were set at 328 and 438 nm, respectively. Treatment with PBS severed as a negative control, and treatment with ampicillin or colistin was used as a positive control.

For “FKAWRWAWRMKKLAAPS [Lfcin4, 17-residue LfcinB17-31 derivative, Trp/Ala-containing]”, the MIC [1] was 15 μM and 32 μg/ml, the MIC [2] was 7.3 μM and 16 μg/ml and the MIC (Escherichia coli CVCC195) was 30 μM and 64 μg/ml. For the same sequence, the MIC [3] was >58 μM and >128 μg/ml, the MIC (S. choleraesuis CVCC503) was 58 μM and 128 μg/ml and the MIC (S. pullorum CVCC1789) was >58 μM and >128 μg/ml. For the same sequence, the MIC (S. pullorum CVCC1802) was >58 μM and >128 μg/ml, the MIC [4] was 58 μM and 128 μg/ml and the MIC [5] was 29 μM and 64 μg/ml. For the same sequence, the MIC [6] was 58 μM and 128 μg/ml and the “time to permeabilization of the outer membrane (NPN fluorescence)” value (S. enteritidis CVCC337) was at most 1 min.
